Data: patent US20100298375A1, “MEDICAMENT COMPRISING A CARBOSTYRIL DERIVATIVE AND DONEPEZIL FOR TREATING ALZHEIMER'S DISEASE” (priority 2007, published 2010)
Counter-ions that a name gives are not always drawn.

Tested on: women suffering from Alzheimer's disease
Experiment: mini-mental state examination (MMSE) in patients with Alzheimer's disease
Assay type: in vivo
Protocol: To two women suffering from Alzheimer's disease (one was […] and the other was […]), donepezil hydrochloride (Aricept®) had been administered in a dose of 5 mg/day for 12 months and 9 months, respectively. […] At the beginning time of the experiment (0 month), the administration of cilostazol in a dose of 100 mg/day started as the combination with donepezil hydrochloride.

COc1cc2c(cc1OC)C(=O)C(CC1CCN(Cc3ccccc3)CC1)C2 (stereo not drawn) [donepezil hydrochloride]
MMSE Score (Patient 1, at start of cilostazol, donepezil hydrochloride 5 mg/day alone until then): 13 | MMSE Score (Patient 1, −3 Ms, donepezil hydrochloride 5 mg/day alone): 16 | MMSE Score (Patient 1, −6 Ms, donepezil hydrochloride 5 mg/day alone): 17 | MMSE Score (Patient 1, −9 Ms, donepezil hydrochloride 5 mg/day alone): 17 | MMSE Score (Patient 2, at start of cilostazol, donepezil hydrochloride 5 mg/day alone until then): 6 | MMSE Score (Patient 2, −3 Ms, donepezil hydrochloride 5 mg/day alone): 10 | MMSE Score (Patient 2, −6 Ms, donepezil hydrochloride 5 mg/day alone): 12 | MMSE Score (Patient 2, −9 Ms, donepezil hydrochloride 5 mg/day alone): 13 | MMSE Score (Patient 2, −12 Ms, donepezil hydrochloride 5 mg/day alone): 16
